{"source": "patent US10039761B2", "about": "“Co-crystals and pharmaceutical compositions comprising the same” (Vertex Pharmaceuticals Incorporated, priority 2013, dated 2018)", "key": {"OE19": {"test_system": "OE19", "test": "Combination with genotoxic agents, cell viability (Mixtures Blend)", "format": "cell-based", "description": "(§1) The cell-based experiments and assays were performed with either molecule but not always with both. Compounds (1) and (2) were generally very similar in those assays and experiments. Analysis of the combination experiments was performed using two methods: the Bliss Additivity model and the Mixtures Blend method to determine the degree of synergy, additivity, or antagonism. In the Bliss method, a matrix of Bliss scores was generated for each cell line and treatment, and a sum of the Bliss values over the range of combination concentrations tested was calculated. […] Larger average Bliss values indicate greater confidence in reporting synergy, and smaller scores indicate greater confidence in reporting antagonism. In the Mixtures Blend method combinants were added in a range of optimal ratios using design of experiment (DOE) software (DX-8 from STAT-EASE); the cells were irradiated with 2 Gy as required. Synergy was determined using statistical analysis of the data (ANOVA) to indicate linear (additivity) or statistically significant (p<0.1) non-linear (antagonism or synergy) mixes of the combinants. The following SOC agents were tested in double combinations with Compound (1): etoposide (a topoisomerase inhibitor that induces DSBs), cisplatin (DNA cross-linker), carboplatin (DNA cross-linker), fluorouracil (5-FU, antimetabolite that inhibits thymidylate synthase), paclitaxel (mitotic inhibitor that binds to tubulin), cetuximab (EGFR monoclonal antibody), and radiation. […] These findings were confirmed using the Bliss Additivity model (Table 21). […] While there is not total agreement in the various lines tested, (as detailed in the other sections) the majority agree and the conclusions arrived at are common to each. […] The cancer cell lines in Table 19 indicate: ESO26-gastroesophageal junction cancer, OE19-gastroesophageal junction cancer, […]549-lung cancer, colo205-colon cancer, H460-lung cancer, H2009-lung cancer, FaDu-pharynx cancer, Miapaca2-pancreatic cancer, HFL1-human fetal lung fibroblast."}, "DMS-53": {"test_system": "DMS-53", "test": "Combination with genotoxic agents, cell viability (Mixtures Blend)", "format": "cell-based", "conditions": "with Cisplatin and Etoposide", "description": "as §1"}, "Colo205": {"test_system": "Colo205", "test": "Combination with genotoxic agents, cell viability (Mixtures Blend)", "format": "cell-based", "conditions": "with Cisplatin and 5-FU", "description": "as §1"}, "[1]": {"test_system": "OE-19 GEJ cell line xenograft", "test": "OE-19 GEJ cell line xenograft efficacy with whole body IR", "format": "in vivo", "description": "The in vivo efficacies of Compounds (1) and (2) in combination with whole body IR were examined in the OD26749 primary NSCLC (non-small cell lung cancer) and the OE-19 GEJ cell line xenograft models. In these studies, Compounds (1) and (2) were formulated with 16% captisol/1% PVP/1% HPMC E5 pH2.\nThe OE-19 cell line xenograft model was used to evaluate the efficacy of Compounds (1) and (2) alone and in combination with IR. Two cycles of treatment were administered (Day 0 and Day 7) as performed in the OD26749 model above.\nIn Tables 14 and 15, for example, PO bid (0, 4 h) indicates Compound (2) is administered twice (bid) at time point 0 and then 4 hours after; IR (0.25 h) qdx3 indicates radiation is administered 15 minutes (0.25 h) after the administration of Compound (2) (0 h), and once a day for 3 days (qdx3); q7dx2 indicates once a week for two weeks; qod indicates every other day twice (e.g., Day 1 and Day 3); and paclitaxel q7dx3 (−0.25 h), carboplatin q7dx3 (−0.25 h) indicates administration of paclitaxel and carboplatin 15 minutes prior to the administration of Compound (2), followed by additional administration of Compound (2) after 4 hours after the first administration of Compound (2)."}, "FaDu cells": {"test_system": "FaDu cells", "test": "Clonogenic survival of irradiated cancer cell lines", "format": "cell-based", "excerpt": "(§2) The clonogenic cell survival assay measures the ability of a cell to proliferate indefinitely, thereby retaining its self-renewing ability to form a colony (i.e., clone). This assay has been a mainstay in radiation oncology for decades and was used to determine the effect of Compound (1) on the clonogenicity of a panel of cell lines across multiple tumor types following radiation. […] A DEF greater than 1.5 is generally considered to be clinically meaningful; therefore, by these standards, Compound (1) would be characterized as a strong radio-enhancing agent."}, "Miapaca2 cells": {"test_system": "Miapaca2 cells", "test": "Clonogenic survival of irradiated cancer cell lines", "format": "cell-based", "conditions": "with radiation; surviving fraction 0.1", "excerpt": "as §2"}, "[2]": {"test_system": "DU4475 breast cancer line", "test": "Doxorubicin or epirubicin combination in DU4475 cells", "format": "cell-based", "conditions": "Doxorubicin or epirubicin in combination with Compound (2)", "protocol": "The cell-based experiments and assays were performed with either molecule but not always with both. […] Analysis of the combination experiments was performed using two methods: the Bliss Additivity model and the Mixtures Blend method to determine the degree of synergy, additivity, or antagonism. In the Bliss method, a matrix of Bliss scores was generated for each cell line and treatment, and a sum of the Bliss values over the range of combination concentrations tested was calculated. […] Larger average Bliss values indicate greater confidence in reporting synergy, and smaller scores indicate greater confidence in reporting antagonism. In the Mixtures Blend method combinants were added in a range of optimal ratios using design of experiment (DOE) software (DX-8 from STAT-EASE); the cells were irradiated with 2 Gy as required. Synergy was determined using statistical analysis of the data (ANOVA) to indicate linear (additivity) or statistically significant (p<0.1) non-linear (antagonism or synergy) mixes of the combinants."}, "HFL1": {"test_system": "HFL1", "test": "Combination with etoposide, viability (Bliss analysis)", "format": "cell-based, human", "conditions": "Compound (2) with etoposide; n = 3", "description": "(§3) The cell-based experiments and assays were performed with either molecule but not always with both. Compounds (1) and (2) were generally very similar in those assays and experiments. Analysis of the combination experiments was performed using two methods: the Bliss Additivity model and the Mixtures Blend method to determine the degree of synergy, additivity, or antagonism. In the Bliss method, a matrix of Bliss scores was generated for each cell line and treatment, and a sum of the Bliss values over the range of combination concentrations tested was calculated. […] Larger average Bliss values indicate greater confidence in reporting synergy, and smaller scores indicate greater confidence in reporting antagonism. In the Mixtures Blend method combinants were added in a range of optimal ratios using design of experiment (DOE) software (DX-8 from STAT-EASE); the cells were irradiated with 2 Gy as required. Synergy was determined using statistical analysis of the data (ANOVA) to indicate linear (additivity) or statistically significant (p<0.1) non-linear (antagonism or synergy) mixes of the combinants."}, "[3]": {"test_system": "ESO26 (GEJ) cancer cell line", "test": "Combination with genotoxic agents, viability (Mixtures analysis)", "format": "cell-based", "conditions": "single agent IC50 on which the mixtures were based", "description": "as §3"}, "MDA-MB-468": {"test_system": "MDA-MB-468", "test": "Doxorubicin combination in triple negative breast cancer cells", "format": "cell-based", "conditions": "Compound (2) with doxorubicin, BRCA wild-type", "description": "as §3"}, "HCC-1395": {"test_system": "HCC-1395", "test": "Doxorubicin combination in triple negative breast cancer cells", "format": "cell-based", "conditions": "Compound (2) with doxorubicin; plating density 5000; BRCA mutant", "description": "as §3"}, "HCC-1937": {"test_system": "HCC-1937", "test": "Doxorubicin combination in triple negative breast cancer cells", "format": "cell-based", "conditions": "Compound (2) with doxorubicin, BRCA mutant", "description": "as §3"}, "MDA-MB-436": {"test_system": "MDA-MB-436", "test": "Doxorubicin combination in triple negative breast cancer cells", "format": "cell-based", "conditions": "Compound (2) with doxorubicin, BRCA mutant", "description": "as §3"}, "HCC-1599": {"test_system": "HCC-1599", "test": "Doxorubicin combination in triple negative breast cancer cells", "format": "cell-based", "conditions": "Compound (2) with doxorubicin; plating density unknown; BRCA mutant", "description": "as §3"}}, "note": "“Also recorded” adds a separate entry of the source."}
{"smiles": "CNC(=O)c1ccnc2c([C@H](C)CNc3cc(-c4cnc(C)nc4)ncn3)cccc12", "note": "[Compound (1), (S)-N-methyl-8-(1-((2′-methyl-[4,5′-bipyrimidin]-6-yl)amino)propan-2-yl)quinoline-4-carboxamide]", "values": [{"measurement": "Synergy or Antagonism, No Radiation", "setting": "OE19; with 5-FU", "result": "Additivity"}, {"measurement": "Synergy or Antagonism, Plus Radiation (2 Gy)", "setting": "OE19; with 5-FU", "result": "Synergy*, Plus"}, {"measurement": "Synergy or Antagonism, No Radiation", "setting": "OE19; with Carboplatin", "result": "Antagonism"}, {"measurement": "Synergy or Antagonism, Plus Radiation (2 Gy)", "setting": "OE19; with Carboplatin", "result": "Synergy*, Plus"}, {"measurement": "Synergy or Antagonism, No Radiation", "setting": "OE19; with Cisplatin and Paclitaxel", "result": "Mix"}, {"measurement": "Synergy or Antagonism, Plus Radiation (2 Gy)", "setting": "OE19; with Cisplatin and Paclitaxel", "result": "Synergy, Plus"}, {"measurement": "Synergy or Antagonism, No Radiation", "setting": "DMS-53", "result": "Strong Synergy"}, {"measurement": "Synergy or Antagonism, No Radiation", "setting": "Colo205", "result": "synergistic; also recorded: Synergy"}, {"measurement": "Synergy or Antagonism, Plus Radiation (2 Gy)", "setting": "Colo205", "result": "Synergy, Plus"}, {"measurement": "tumor growth", "setting": "[1]; Compound (1) in combination with 2 Gy whole body IR", "result": "significantly inhibited tumor growth"}, {"measurement": "% T/C (Day 18)", "setting": "[1]; PO 100 mg/kg bid (0, 4 h) qd7x2, 2 Gy IR qd7x2 ([…]) whole body", "result": 24.0, "unit": "%"}, {"measurement": "% T/C (Day 18)", "setting": "[1]; PO 100 mg/kg bid (0, 4 h) qd7x 2, no IR", "result": 79.0, "unit": "%"}, {"measurement": "colony formation", "setting": "FaDu cells; Compound (1) and radiation, as little as 0.5 Gy", "result": "completely eliminated colony formation"}, {"measurement": "dose enhancement factor (DEF)", "setting": "FaDu cells; with radiation, surviving fraction 0.1", "result": "> 8"}, {"measurement": "dose enhancement factor (DEF)", "setting": "Miapaca2 cells", "result": 2.5}]}
{"smiles": "[2H]c1nc(C)nc([2H])c1-c1cc(NC[C@@H](C)c2cccc3c(C(=O)NC)ccnc23)ncn1", "note": "[Compound (2), (S)-N-methyl-8-(1-((2′-methyl-4′,6′-dideutero-[4,5′-bipyrimidin]-6-yl)amino)propan-2-yl)quinoline-4-carboxamide]", "values": [{"measurement": "Bliss analysis, combination effect", "setting": "[2]", "result": "strong synergy (greater than 10 indicates strong synergy)"}, {"measurement": "Average Bliss score", "setting": "HFL1", "result": "8.7 ± 5.6 (n = 3)"}, {"measurement": "IC50", "setting": "[3]", "result": 20, "unit": "µM"}, {"measurement": "Average Bliss score", "setting": "MDA-MB-468; plating density 5000", "result": 23.1}, {"measurement": "Average Bliss score", "setting": "MDA-MB-468; plating density 20000", "result": 24.7}, {"measurement": "Average Bliss score", "setting": "HCC-1395", "result": 11.1}, {"measurement": "Average Bliss score", "setting": "HCC-1937; plating density 5000", "result": 16.6}, {"measurement": "Average Bliss score", "setting": "HCC-1937; plating density 20000", "result": 15.6}, {"measurement": "Average Bliss score", "setting": "MDA-MB-436; plating density 5000", "result": 14.5}, {"measurement": "Average Bliss score", "setting": "MDA-MB-436; plating density 20000", "result": 14.4}, {"measurement": "Average Bliss score", "setting": "HCC-1599", "result": 14.3}]}
